Where a name gives a salt, the structure may show the parent alone. Read-outs that look alike come from different tables or passages of the source.
Columns and labels:
[1] = target: T1, SHP-2 (Homo sapiens, UniProt Q06124); test: PTP Enzyme Assay (DiFMUP), SHP-2; assay type: biochemical; conditions: 20 μM DiFMUP, catalytic core of human recombinant PTP; read-out: IC50 value in respect of SHP-2
T1 construct: using the catalytic core of a human recombinant PTP as the enzyme; made in house
T1 sequence (Q06124 247-517 limits assumed): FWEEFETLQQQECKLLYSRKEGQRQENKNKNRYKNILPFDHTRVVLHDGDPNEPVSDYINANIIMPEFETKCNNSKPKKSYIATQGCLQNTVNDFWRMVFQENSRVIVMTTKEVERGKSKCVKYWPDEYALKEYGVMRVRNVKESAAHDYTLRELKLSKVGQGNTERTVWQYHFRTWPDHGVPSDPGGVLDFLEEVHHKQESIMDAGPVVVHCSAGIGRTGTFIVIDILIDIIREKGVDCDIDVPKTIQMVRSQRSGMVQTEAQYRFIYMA
Procedure: (§1) The PTP Enzyme Assay aims at determining the extent of inhibition of PTP's, e.g. of PTP1B, SEP-1, SHP-2, GLEPP-1 or PTP-H1 in the presence of a test compound of lo formula (I). The inhibition is illustrated by IC50 values which denote the concentration of test compound necessary to achieve an inhibition of 50% of said PTP's using the following concentration of the PTP substrate DiFMUP: • 5 μM DiFMUP for PTP1B and PTP-H1; • 20 μM DiFMUP for SHP-1 and SHP-2; • 30 μM DiFMUP for GLEPP-1. a) PTPs Cloning […]
(§2) Assays were performed in a 96 well plate format, using the catalytic core of a human recombinant PTP as the enzyme and 6,8-DiFluoro-4-MethylUmbelliferyl Phosphate (DiFMUP, Molecular Probes, D-6567) as a substrate. […] The reaction ran for 30 minutes at room temperature before reading the fluorescence intensity (integral or intensity) on a Perkin-Elmer Victor 2 spectrofluorimeter (excitation of 6,8-difluoro-7-hydroxy coumarin is at 355 nm, the emission at 460 nm, for 0.1 s). The percentage of inhibition is determined by measuring the relative fluorescence ion absence of a test compound (PTP inhibitor), i.e. with the solvent alone (5% DMSO). The IC50 values for inhibition were determined in triplicates.

[2] = target: T2, PTP-H1 (Homo sapiens, UniProt P26045); test: PTP Enzyme Assay (DiFMUP), PTP-H1; assay type: biochemical; conditions: 5 μM DiFMUP, catalytic core of human recombinant PTP; read-out: IC50 value in respect of PTP-H1
T2 construct: using the catalytic core of a human recombinant PTP as the enzyme; made in house
T2 sequence (P26045 646-901 limits assumed): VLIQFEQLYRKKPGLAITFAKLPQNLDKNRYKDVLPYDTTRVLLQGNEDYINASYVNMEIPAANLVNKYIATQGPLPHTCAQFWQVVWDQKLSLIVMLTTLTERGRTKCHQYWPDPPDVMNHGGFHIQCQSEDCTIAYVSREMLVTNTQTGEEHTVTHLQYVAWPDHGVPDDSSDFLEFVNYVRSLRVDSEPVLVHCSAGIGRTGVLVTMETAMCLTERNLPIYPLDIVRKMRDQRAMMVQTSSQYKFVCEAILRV
Procedure: as §1, §2

[3] = target: T3, GLEPP-1 (Homo sapiens, UniProt Q16827); test: PTP Enzyme Assay (DiFMUP), GLEPP-1; assay type: biochemical
T3 construct: using the catalytic core of a human recombinant PTP as the enzyme; made in house
T3 sequence (Q16827 938-1195 limits assumed): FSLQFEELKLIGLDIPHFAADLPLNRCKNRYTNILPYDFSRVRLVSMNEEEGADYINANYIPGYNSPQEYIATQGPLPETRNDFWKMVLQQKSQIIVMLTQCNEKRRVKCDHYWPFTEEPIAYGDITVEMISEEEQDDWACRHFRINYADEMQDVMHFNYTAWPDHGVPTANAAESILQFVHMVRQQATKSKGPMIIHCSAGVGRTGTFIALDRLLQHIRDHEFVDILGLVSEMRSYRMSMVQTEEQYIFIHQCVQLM
From the text: The PTP Enzyme Assay aims at determining the extent of inhibition of PTP's, e.g. of PTP1B, SEP-1, SHP-2, GLEPP-1 or PTP-H1 in the presence of a test compound of lo formula (I).
(§3) The DiFMUP assay allows to follow the dephosphorylation of DiFMUP (6,8-DiFluoro-4-MethylUmbelliferyl Phosphate)—which is the PTP substrate—mediated by PTP into its stable hydrolysis product, i.e. DiFMU (6,8-difluoro-7-hydroxy coumarin). Due to its rather low pKa and its high quantum yield, DiFMU allows to measure both acidic and alkaline phosphatase activities with a great sensitivity.
(§4) Compounds to be tested were dissolved in 100% DMSO at a concentration of 2 mM. Subsequent dilutions of the test compounds (to yield a concentration of 100, 30, 10, 3, 1,0.3, 0.1, 0.03, 0.01, 0.001 μM) were performed in 60% DMSO manually. 8 μl of diluted compound or vehicle (60% DMSO=control) was distributed to a black Costar 96 well plate. 42 μl of human recombinant PTP enzyme diluted in assay buffer (20 mM Tris HCl pH 7.5, 0.01% IGEPAL CA-630, 0.1 mM ethylenediaminetetracetic acid, 1 mM DL-Dithiothreitol) can be added to the dilutions of compound or vehicule (distributed to a black Costar 96-well plate), followed by 50 μl of DiFMUP diluted in the assay buffer. The reaction ran for 30 minutes at room temperature before reading the fluorescence intensity (integral or intensity) on a Perkin-Elmer Victor 2 spectrofluorimeter (excitation of 6,8-difluoro-7-hydroxy coumarin is at 355 nm, the emission at 460 nm, for 0.1 s). The percentage of inhibition is determined by measuring the relative fluorescence ion absence of a test compound (PTP inhibitor), i.e. with the solvent alone (5% DMSO). The IC50 values for inhibition were determined in triplicates.

[4] = target: T4, PTP1B (Homo sapiens, UniProt P18031); test: PTP Enzyme Assay (DiFMUP), PTP1B; assay type: biochemical; conditions: 5 μM DiFMUP, catalytic core of human recombinant PTP; read-out: IC50 value in respect of PTP1B
T4 construct: using the catalytic core of a human recombinant PTP as the enzyme; made in house
T4 sequence (P18031 3-277 limits assumed): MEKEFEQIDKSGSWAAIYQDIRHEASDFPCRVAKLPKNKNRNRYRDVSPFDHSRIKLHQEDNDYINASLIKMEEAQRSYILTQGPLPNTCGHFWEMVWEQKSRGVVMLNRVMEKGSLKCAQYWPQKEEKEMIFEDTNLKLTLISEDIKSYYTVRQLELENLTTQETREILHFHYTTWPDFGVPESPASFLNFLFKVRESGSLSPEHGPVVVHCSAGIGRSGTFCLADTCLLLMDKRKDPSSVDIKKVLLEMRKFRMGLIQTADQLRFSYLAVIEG
Procedure: The PTP Enzyme Assay aims at determining the extent of inhibition of PTP's, e.g. of PTP1B, SEP-1, SHP-2, GLEPP-1 or PTP-H1 in the presence of a test compound of lo formula (I). The inhibition is illustrated by IC50 values which denote the concentration of test compound necessary to achieve an inhibition of 50% of said PTP's using the following concentration of the PTP substrate DiFMUP: • 5 μM DiFMUP for PTP1B and PTP-H1; • 20 μM DiFMUP for SHP-1 and SHP-2; • 30 μM DiFMUP for GLEPP-1. a) PTPs Cloning
The cloning and expression of the catalytic domain e.g. of PTP1B, may be performed as described in J. Biol. Chem. 2000, 275(13), pp 9792-9796.
as §3
as §4, with “Assays were performed in a 96 well plate format, using the catalytic core of a human recombinant PTP as the enzyme and 6,8-DiFluoro-4-MethylUmbelliferyl Phosphate (DiFMUP, Molecular Probes, D-6567) as a substrate. Compounds” for “Compounds”, “42 μl of human recombinant PTP enzyme diluted in assay buffer (20 mM Tris HCl pH 7.5, 0.01% IGEPAL CA-630, 0.1 mM ethylenediaminetetracetic acid, 1 mM DL-Dithiothreitol) can be added to the dilutions of compound or vehicule (distributed to a black Costar 96-well plate), followed by 50 μl of DiFMUP diluted in the assay buffer.” left out

[5] = target: T5, SHP-1 (Homo sapiens, UniProt P29350); test: PTP Enzyme Assay (DiFMUP), SHP-1; assay type: biochemical; conditions: 20 μM DiFMUP, catalytic core of human recombinant PTP; read-out: IC50 value in respect of SHP-1
T5 construct: using the catalytic core of a human recombinant PTP as the enzyme; made in house
T5 sequence (P29350 244-515 limits assumed): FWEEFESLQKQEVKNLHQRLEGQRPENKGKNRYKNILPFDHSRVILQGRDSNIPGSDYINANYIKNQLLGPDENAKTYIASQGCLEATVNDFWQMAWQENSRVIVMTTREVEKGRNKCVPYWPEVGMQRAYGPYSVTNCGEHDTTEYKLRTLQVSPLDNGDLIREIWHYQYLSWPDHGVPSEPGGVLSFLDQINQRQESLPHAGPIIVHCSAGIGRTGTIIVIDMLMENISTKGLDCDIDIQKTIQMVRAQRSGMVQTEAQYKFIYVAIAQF
Procedure: as §1, §2

[6] = test system: db/db mice; test: In vivo assay in db/db mice (postprandial glycemia); conditions: 30 mg/kg per os, 4 hrs after drug administration, percentage of control (group 1: vehicle treated mice)
Procedure: The following assay aims at determining the anti-diabetic effect of the test compounds of formula (I) in a model of postprandial glycemia in db/db mice, in vivo.
The assay was performed as follows:
A total of 18 db/db mice (about 8-9 weeks; obtained from IFFACREDO, l'Arbreste, France) were fasted during 20 hours.
2 groups, each consisting of 6 animals were formed: • Group 1: The animals were administered (per os) a dose of 10 mL/kg of vehicle (control). • Group 2: The animals were administered (per os) a dose of 30 mg/kg of the test compound according to formula (I) solubilized in the vehicle.
After oral administration of the compounds of formula (I) solubilized or suspended in CarboxyMethylCellulose (0.5%), Tween 20 (0.25%) and water as vehicle, the animals had access to conmnercial food (D04, UAR, Villeinoisson/Orge, France) ad libitum. The diabetic state of the mice was verified by determining the blood glucose level before drug administration. Blood glucose and serum insulin levels were then determined 4 hrs after drug administration.
The determination of the blood glucose level was performed using a glucometer (Precision Q.I.D., Medisense, Abbot, ref. 212.62.31).
The determination of the Insulin level was performed using an ELISA kit (Crystal CHEM, Ref. INSK R020).
Changes in blood glucose and serum insulin of drug treated mice were expressed as a percentage of control (group 1: vehicle treated mice).

[7] = 30 μM DiFMUP, catalytic core of human recombinant PTP, read-out: IC50 value in respect of GLEPP-1

Row | Compound | IC50 [3, 7] [nM] | IC50 [4] [nM] | Decrease in blood glucose [6] [%] | Decrease in serum insulin [6] [%] | also measured
1 | CCCCc1ccc(C#Cc2ccc(CN(Cc3ccc(OCC(=O)O)cc3)S(=O)(=O)/C=C/c3ccccc3)cc2)cc1 [Example 8, {4-[({4-[(4-butylphenyl)ethynyl]benzyl}{[(E)-2-phenylvinyl]sulfonyl}-amino)methyl]phenoxy}acetic acid] | 620 | 510 |  |  | IC50 [1]: 800 nM; IC50 [2]: 9640 nM; IC50 [5]: 820 nM
2 | CCCCCCN(C(=O)c1ccc(C#Cc2ccc(CCCC)cc2)cc1)c1ccc(F)c(C(=O)O)c1 [Example 55, 5-[{4-[(4-butylphenyl)ethynyl]benzoyl}(hexyl)amino]-2-fluorobenzoic acid, N-methyl-D-glucamine (i.e. 1-deoxy-1-(methylamino)glucitol)salt] |  |  | 46 | 75 | 
3 | 5-[(1-{4-[(4-butylphenyl)ethynyl]phenyl}pentyl)oxy]-2-hydroxybenzoic acid [Example 16] |  |  | 37 | 28 | 
4 | CCCCCCN(Cc1ccc(C#Cc2ccccc2)cc1)c1ccc(F)c(C(=O)O)c1 [Example 30, 2-fluoro-5-{hexyl[4-(phenylethynyl)benzyl]amino}benzoic acid, N-methyl-D-glucamine (i.e. 1-deoxy-1-(methylamino)glucitol) salt] |  | 800 |  |  | IC50 [3]: 860 nM
5 | CCCCc1ccc(C#Cc2ccc(CN(CCC(C)(C)C)c3ccc(F)c(C(=O)O)c3)cc2)cc1 [Example 35, 5-[{4-[(4-butylphenyl)ethynylbenzyl}(3,3-dimethylbutyl)amino]-2-fluorobenzoic acid, N-methyl-D-glucamine (i.e. 1-deoxy-1-(methylamino)glucitol)salt] | 210 | 80 |  |  | 
6 | CCCCCCN(Cc1ccc(C#Cc2ccc(CCCC)cc2)cc1)C(=O)c1ccc(O)c(C(=O)O)c1 [Example 19, 5-[{{4-[(4-butylphenyl)ethynyl]benzyl}(hexyl)amino]carbonyl}-2-hydroxybenzoic acid, N-methyl-D-glucamine (i.e. 1-deoxy-1-(methylamino)-glucitol) salt] |  |  | 20 | 43 | 

From US7947851B2, “1,1′-(1,2-ethynediyl)bis-benzene derivatives as PTP 1-B inhibitors” (Merck Serono SA, priority 2004, dated 2011)
